According to ChEMBL document CHEMBL5696442, “Discovery of type II inhibitors of TGFβ-activated kinase 1 (TAK1) and mitogen-activated protein kinase kinase kinase kinase 2 (MAP4K2)” (J Med Chem, 2015):
Active and inactive are the calls of the source. No cut-off for these calls is given here.

Key:
[1] = target: T1, Mitogen-activated protein kinase kinase kinase 5 (Homo sapiens) (UniProt Q99683); assay: Inhibition of ASK1 (unknown origin) at 10 uM by Ambit Kinomescan binding assay
T1 sequence (whole entry): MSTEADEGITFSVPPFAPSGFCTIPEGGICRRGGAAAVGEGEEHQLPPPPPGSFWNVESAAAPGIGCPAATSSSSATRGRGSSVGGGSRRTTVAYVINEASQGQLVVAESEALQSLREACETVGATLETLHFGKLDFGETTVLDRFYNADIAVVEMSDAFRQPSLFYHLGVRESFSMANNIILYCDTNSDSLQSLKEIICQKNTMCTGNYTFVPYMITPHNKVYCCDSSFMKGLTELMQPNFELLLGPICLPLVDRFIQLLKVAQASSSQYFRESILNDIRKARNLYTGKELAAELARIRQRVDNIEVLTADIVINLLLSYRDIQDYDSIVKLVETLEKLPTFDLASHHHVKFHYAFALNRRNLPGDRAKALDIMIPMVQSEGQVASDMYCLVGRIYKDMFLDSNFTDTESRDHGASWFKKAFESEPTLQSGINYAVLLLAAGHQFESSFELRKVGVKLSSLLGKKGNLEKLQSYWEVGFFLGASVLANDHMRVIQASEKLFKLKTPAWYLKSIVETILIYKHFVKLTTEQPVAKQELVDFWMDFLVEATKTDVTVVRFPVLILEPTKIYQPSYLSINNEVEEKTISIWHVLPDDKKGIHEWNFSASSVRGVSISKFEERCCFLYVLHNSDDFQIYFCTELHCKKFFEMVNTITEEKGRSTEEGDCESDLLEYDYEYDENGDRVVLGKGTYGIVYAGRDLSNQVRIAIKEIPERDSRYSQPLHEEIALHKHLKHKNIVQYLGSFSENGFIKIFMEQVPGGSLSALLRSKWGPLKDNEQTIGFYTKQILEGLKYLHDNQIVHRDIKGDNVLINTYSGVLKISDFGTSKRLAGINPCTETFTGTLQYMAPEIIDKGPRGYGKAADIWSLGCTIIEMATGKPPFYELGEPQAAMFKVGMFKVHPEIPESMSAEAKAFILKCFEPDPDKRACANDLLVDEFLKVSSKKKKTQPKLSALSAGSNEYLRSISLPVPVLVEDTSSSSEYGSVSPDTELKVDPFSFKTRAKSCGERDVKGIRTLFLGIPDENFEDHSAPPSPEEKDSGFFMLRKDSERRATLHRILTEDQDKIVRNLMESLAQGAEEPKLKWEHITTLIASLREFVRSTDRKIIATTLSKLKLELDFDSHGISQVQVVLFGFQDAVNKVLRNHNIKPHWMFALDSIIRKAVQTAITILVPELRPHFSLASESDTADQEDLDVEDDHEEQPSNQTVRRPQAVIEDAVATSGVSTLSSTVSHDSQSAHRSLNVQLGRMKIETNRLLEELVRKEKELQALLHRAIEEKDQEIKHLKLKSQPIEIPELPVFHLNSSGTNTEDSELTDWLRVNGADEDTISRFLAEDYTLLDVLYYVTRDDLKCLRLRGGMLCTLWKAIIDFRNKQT

[2] = target: Ephrin type-A receptor 6 (Homo sapiens) (UniProt Q9UF33); assay: Inhibition of EPHA6 (unknown origin) at 10 uM by Ambit Kinomescan binding assay
[3] = target: Tyrosine-protein kinase CSK (Homo sapiens, UniProt P41240); assay: Inhibition of CSK ACT labeling site harbouring VSDFGLTKEASSTQDTGK in human Huh-7 cells at 10 uM by KiNativ Profiling analysis relative to control; type: cell-based
[4] = target: Focal adhesion kinase 1 (Homo sapiens) (UniProt Q05397); assay: Inhibition of FAK K1 labeling site in human Huh-7 cells at 1 uM by KiNativ Profiling analysis relative to control; type: cell-based
Chain of Focal adhesion kinase 1 (Homo sapiens) (Q05397 2-1052 limits assumed): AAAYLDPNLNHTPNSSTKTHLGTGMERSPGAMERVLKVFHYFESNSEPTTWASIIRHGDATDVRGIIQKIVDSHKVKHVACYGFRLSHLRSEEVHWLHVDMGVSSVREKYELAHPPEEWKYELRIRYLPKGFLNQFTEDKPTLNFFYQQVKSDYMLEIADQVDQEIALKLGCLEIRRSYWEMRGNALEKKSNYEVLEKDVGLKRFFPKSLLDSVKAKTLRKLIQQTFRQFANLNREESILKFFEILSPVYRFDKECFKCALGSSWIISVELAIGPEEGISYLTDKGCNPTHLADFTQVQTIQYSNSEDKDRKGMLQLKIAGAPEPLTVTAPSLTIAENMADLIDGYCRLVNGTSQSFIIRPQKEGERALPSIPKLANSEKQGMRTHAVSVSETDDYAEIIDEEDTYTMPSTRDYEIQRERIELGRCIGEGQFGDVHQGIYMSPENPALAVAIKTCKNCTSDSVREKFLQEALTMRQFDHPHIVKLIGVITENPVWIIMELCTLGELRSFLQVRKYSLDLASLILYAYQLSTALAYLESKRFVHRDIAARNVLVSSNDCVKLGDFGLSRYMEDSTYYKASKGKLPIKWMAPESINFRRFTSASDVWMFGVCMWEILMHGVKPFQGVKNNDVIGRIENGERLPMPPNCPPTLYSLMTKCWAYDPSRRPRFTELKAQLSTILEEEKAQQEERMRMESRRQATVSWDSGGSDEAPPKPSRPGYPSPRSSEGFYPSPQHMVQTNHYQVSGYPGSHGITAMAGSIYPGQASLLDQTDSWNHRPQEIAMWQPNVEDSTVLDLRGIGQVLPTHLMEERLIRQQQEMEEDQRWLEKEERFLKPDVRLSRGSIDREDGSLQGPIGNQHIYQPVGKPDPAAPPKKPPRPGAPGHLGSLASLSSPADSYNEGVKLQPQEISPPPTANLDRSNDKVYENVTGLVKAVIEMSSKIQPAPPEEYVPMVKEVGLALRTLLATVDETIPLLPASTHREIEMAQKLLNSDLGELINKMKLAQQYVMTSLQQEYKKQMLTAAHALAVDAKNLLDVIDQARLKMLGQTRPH

[5] = target: MAP/microtubule affinity-regulating kinase 3 (Homo sapiens) (UniProt P27448); assay: Inhibition of MARK3 K1 labeling site in human Huh-7 cells at 1 uM by KiNativ Profiling analysis relative to control; type: cell-based
Chain of MAP/microtubule affinity-regulating kinase 3 (Homo sapiens) (P27448 whole entry, looked up): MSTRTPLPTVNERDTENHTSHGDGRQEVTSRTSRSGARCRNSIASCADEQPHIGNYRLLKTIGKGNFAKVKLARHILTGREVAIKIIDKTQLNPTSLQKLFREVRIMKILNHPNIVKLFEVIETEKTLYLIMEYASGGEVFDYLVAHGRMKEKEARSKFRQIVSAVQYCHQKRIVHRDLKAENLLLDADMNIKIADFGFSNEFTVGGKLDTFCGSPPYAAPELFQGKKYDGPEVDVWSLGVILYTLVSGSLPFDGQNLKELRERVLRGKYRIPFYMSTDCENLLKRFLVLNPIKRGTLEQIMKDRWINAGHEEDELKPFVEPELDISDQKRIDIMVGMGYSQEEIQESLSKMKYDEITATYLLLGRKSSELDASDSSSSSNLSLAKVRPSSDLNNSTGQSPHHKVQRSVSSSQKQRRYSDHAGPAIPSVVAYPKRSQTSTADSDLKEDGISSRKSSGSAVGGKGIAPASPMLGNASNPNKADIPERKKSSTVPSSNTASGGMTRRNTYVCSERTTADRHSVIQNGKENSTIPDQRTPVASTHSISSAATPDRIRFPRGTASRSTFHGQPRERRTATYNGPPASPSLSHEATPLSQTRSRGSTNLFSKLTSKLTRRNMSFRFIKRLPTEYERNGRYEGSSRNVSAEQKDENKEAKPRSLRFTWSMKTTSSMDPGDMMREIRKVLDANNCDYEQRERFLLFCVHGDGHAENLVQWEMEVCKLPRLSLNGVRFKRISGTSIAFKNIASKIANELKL

[6] = target: Tyrosine-protein kinase Tec (Homo sapiens) (UniProt P42680); assay: Inhibition of TEC (unknown origin) at 10 uM by Ambit Kinomescan binding assay
Chain of Tyrosine-protein kinase Tec (Homo sapiens) (P42680 whole entry, looked up): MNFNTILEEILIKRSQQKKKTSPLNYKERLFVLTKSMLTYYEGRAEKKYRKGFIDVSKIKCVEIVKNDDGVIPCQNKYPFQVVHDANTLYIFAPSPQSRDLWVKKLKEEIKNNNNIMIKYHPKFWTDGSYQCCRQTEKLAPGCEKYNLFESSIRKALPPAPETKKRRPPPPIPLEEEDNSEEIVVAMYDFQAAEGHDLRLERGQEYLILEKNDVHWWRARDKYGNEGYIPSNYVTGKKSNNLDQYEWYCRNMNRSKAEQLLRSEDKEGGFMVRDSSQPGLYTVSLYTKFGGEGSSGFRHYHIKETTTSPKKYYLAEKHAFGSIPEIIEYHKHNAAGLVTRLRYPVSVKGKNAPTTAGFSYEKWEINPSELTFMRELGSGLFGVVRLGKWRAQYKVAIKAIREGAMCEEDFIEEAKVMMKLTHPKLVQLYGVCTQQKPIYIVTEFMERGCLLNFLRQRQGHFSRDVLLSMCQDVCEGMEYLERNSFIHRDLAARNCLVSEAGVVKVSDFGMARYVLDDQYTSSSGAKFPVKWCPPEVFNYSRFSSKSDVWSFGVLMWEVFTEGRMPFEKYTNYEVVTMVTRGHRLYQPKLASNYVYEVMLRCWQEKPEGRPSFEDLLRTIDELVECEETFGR

[7] = target: T2, Aurora kinase A (Homo sapiens) (UniProt O14965); assay: Inhibition of AurA ATP labeling site in human Huh-7 cell lysate at 1 uM by KiNativ Profiling analysis relative to control; type: subcellular
T2 sequence (whole entry): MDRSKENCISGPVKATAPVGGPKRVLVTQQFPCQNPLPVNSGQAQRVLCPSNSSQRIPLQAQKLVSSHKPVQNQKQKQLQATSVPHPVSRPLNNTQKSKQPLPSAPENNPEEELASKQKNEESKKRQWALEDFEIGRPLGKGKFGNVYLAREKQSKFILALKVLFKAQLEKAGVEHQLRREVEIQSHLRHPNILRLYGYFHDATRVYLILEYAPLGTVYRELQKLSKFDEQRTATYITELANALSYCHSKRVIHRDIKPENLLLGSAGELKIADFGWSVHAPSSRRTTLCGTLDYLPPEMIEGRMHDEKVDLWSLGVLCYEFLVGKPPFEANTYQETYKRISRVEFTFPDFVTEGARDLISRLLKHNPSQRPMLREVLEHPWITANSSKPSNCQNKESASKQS

[8] = target: Rho-associated protein kinase 2 (Homo sapiens) (UniProt O75116); assay: Inhibition of ROCK2 Lys2 labeling site in human Huh-7 cell lysate at 1 uM by KiNativ Profiling analysis relative to control; type: subcellular
[9] = target: Ribosomal protein S6 kinase alpha-3 (Homo sapiens) (UniProt P51812); assay: Inhibition of RSK2 domain 1 Lys2 labeling site harbouring DLKPENILLDEEGHIKLTDFGLSK in human Huh-7 cell lysate at 1 uM by KiNativ Profiling analysis relative to control; type: subcellular
[10] = target: Serine/threonine-protein kinase WNK3 (Homo sapiens) (UniProt Q9BYP7); assay: Inhibition of Wnk3 ACT labeling site in human Huh-7 cell lysate at 1 uM by KiNativ Profiling analysis relative to control; type: subcellular
Chain of Serine/threonine-protein kinase WNK3 (Homo sapiens) (Q9BYP7 whole entry): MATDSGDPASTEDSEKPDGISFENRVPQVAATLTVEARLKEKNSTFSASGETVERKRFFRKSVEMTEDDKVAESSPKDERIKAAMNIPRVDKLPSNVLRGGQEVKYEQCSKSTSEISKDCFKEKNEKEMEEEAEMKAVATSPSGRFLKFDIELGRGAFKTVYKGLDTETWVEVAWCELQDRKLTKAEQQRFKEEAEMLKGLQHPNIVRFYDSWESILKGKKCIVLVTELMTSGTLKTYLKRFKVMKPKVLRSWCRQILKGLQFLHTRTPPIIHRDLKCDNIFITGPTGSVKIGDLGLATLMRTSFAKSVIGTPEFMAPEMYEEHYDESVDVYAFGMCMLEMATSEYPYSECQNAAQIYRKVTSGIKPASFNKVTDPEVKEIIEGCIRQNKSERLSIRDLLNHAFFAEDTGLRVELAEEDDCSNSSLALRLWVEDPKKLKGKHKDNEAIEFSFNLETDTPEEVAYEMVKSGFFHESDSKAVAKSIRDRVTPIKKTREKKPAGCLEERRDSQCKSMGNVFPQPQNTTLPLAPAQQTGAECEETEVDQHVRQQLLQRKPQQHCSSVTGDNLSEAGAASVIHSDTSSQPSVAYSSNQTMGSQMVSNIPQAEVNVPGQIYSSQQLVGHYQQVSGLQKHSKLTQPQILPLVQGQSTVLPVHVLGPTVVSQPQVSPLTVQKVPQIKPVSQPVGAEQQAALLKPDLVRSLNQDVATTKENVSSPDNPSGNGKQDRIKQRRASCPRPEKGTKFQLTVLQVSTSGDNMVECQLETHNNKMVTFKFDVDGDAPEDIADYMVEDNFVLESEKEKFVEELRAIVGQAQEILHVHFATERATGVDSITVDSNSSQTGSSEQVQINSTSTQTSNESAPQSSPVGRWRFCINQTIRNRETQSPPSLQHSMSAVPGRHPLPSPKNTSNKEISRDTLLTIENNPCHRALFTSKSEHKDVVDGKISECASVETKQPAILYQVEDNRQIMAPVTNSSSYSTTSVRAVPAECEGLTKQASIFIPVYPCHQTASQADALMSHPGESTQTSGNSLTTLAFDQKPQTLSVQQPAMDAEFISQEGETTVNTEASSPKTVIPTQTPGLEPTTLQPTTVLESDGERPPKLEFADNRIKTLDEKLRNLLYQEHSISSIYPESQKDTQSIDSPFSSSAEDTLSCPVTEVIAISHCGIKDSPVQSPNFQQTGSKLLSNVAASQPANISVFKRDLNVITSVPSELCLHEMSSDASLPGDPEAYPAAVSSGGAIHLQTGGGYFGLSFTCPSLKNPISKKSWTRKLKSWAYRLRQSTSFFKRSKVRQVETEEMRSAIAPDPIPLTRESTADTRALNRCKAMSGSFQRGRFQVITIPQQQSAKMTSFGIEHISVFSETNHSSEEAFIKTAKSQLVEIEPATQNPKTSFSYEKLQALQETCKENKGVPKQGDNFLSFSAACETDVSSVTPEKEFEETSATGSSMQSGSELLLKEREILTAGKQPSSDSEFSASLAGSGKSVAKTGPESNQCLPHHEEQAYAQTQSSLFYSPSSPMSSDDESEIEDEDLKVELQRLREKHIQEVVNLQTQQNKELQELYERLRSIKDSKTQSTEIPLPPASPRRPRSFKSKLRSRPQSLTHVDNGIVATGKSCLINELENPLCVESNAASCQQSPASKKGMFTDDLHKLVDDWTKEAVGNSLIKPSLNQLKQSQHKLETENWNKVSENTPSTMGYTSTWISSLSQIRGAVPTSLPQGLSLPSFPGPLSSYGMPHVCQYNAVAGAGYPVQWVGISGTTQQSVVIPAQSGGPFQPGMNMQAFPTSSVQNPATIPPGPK

[11] = target: 5'-AMP-activated protein kinase catalytic subunit alpha-1 (Homo sapiens) (UniProt Q13131); assay: Inhibition of AMPK-alpha1 (unknown origin) at 1 uM by Ambit Kinomescan binding assay relative to control
Chain of 5'-AMP-activated protein kinase catalytic subunit alpha-1 (Homo sapiens) (Q13131 whole entry, looked up): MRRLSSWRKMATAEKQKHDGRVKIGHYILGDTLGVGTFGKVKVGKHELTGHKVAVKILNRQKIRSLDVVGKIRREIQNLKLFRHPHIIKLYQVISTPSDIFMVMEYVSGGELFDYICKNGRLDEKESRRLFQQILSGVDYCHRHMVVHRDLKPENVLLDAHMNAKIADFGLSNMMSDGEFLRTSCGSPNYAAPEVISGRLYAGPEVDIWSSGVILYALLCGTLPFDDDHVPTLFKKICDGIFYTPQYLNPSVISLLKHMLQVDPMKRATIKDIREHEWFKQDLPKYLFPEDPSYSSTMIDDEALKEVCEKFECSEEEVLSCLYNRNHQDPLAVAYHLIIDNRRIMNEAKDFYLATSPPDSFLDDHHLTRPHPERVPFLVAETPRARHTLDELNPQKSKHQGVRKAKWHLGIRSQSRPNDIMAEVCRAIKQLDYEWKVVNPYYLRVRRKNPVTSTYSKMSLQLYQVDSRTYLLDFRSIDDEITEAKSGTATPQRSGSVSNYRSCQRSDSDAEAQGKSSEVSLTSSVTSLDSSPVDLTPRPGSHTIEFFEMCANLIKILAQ

**Q.** Which inhibition [1] does the source give for `CCN1CCN(Cc2ccc(NC(=O)c3ccc(C)c(Oc4ccnc5[nH]ccc45)c3)cc2C(F)(F)F)CC1` here?
**A.** inactive

**Q.** What about the inhibition [2] of the same compound?
**A.** inactive

**Q.** And the inhibition [3]?
**A.** 10.8%

**Q.** What about the inhibition [4] of the same compound?
**A.** 32%

**Q.** And the inhibition [5]?
**A.** 5%

**Q.** What about the inhibition [6] of the same compound?
**A.** inactive

**Q.** Which inhibition [7] does the source give for `CNc1cc(Oc2cc(C(=O)Nc3cc(N4CCN(C)CC4)cc(C(F)(F)F)c3)ccc2C)ncn1` here?
**A.** 2.5%

**Q.** What about the inhibition [8] of the same compound?
**A.** 2.7%

**Q.** What about the inhibition [9] of the same compound?
**A.** 3.1%

**Q.** What about the inhibition [10] of the same compound?
**A.** -6.9%

**Q.** Which inhibition [11] does the source give for `CCN1CCN(Cc2ccc(NC(=O)c3ccc(C)c(/C=C/c4cnc5[nH]ccc5c4OC)c3)cc2C(F)(F)F)CC1` here?
**A.** 25%
